Structures can show the parent of a compound that is named as a salt.
Legend:
Solubility in water = format: physicochemical
Description: L-Selenomethionine (97.8 mg, 0.5 mmole) was added to water (45 ml) in a 250-ml round bottom flask placed in an ice-bath. The mixture was vigorously stirred by using a magnetic stirrer and a Teflon coated stir-bar. […] Zinc chloride (68.20 mg, 0.5 mmole) was added with continued stirring. A clear solution was immediately formed. The solution was concentrated to dryness at temperature 40° C. under reduced pressure. A hygroscopic colorless solid was formed.

glutathione peroxidase [1] = assay: Glutathione peroxidase activity in selenium-depleted lambs fed selenium sources; format: in vivo; settings: for Whole blood glutathione peroxidase activity, difference between selenium sources / Plasma glutathione peroxidase activity compared with sodium selenite / Glutathione peroxidase activities in kidney, liver, and muscle compared to sodium selenite: lambs; for Whole blood glutathione peroxidase activity, difference between selenium sources: day 14; for Plasma glutathione peroxidase activity compared with sodium selenite: day 28, 0.05 ppm Se; for Glutathione peroxidase activities in kidney, liver, and muscle compared to sodium selenite: supplemented for 56 days; for Relative bioavailability based on glutathione peroxidase activity, Plasma, day 14 / Relative bioavailability based on glutathione peroxidase activity, Plasma, day 28 / Relative bioavailability based on glutathione peroxidase activity, Heart / Relative bioavailability based on glutathione peroxidase activity, Kidney / Relative bioavailability based on glutathione peroxidase activity, Liver / Relative bioavailability based on glutathione peroxidase activity, Muscle: sheep, po; for Relative bioavailability based on glutathione peroxidase activity, Plasma, day 14: 14 days; for Relative bioavailability based on glutathione peroxidase activity, Plasma, day 28: 28 days; for Relative bioavailability based on glutathione peroxidase activity, Heart / Relative bioavailability based on glutathione peroxidase activity, Kidney / Relative bioavailability based on glutathione peroxidase activity, Liver / Relative bioavailability based on glutathione peroxidase activity, Muscle: 56 days
Excerpt: (§1) […] lambs with average weight of 18.5 kg were used. […] Lambs were weaned at approximately two months of age and placed in plastic pens with plastic feeders and stainless steel waterers. For 56 days lambs were fed feedstuff low in selenium. Jugular blood samples were obtained from all lambs on days 0, 28 and 56. At the end of the 56-day depletion period, lambs were stratified by weight and randomly assigned to […]. The treatments consisted of: 1) Control, 2) sodium selenite, 3) L-selenomethionine and 4) zinc L-selenomethionine. The selenium sources were added to provide 0.05 ppm of supplemental selenium for 28 days and then the amount of selenium from each source was increased to 0.1 ppm for additional 28 days. Blood samples were collected via jugular puncture on days 0, 14, 28 and 56. Whole blood and plasma glutathione peroxidase activity in samples obtained on days 0, 14, 28, and 56. Plasma selenium was measured in samples obtained on days 0, 28, and 56. Six lambs from each treatment were slaughtered at the end of the study and samples of liver, kidney, muscle, and heart were obtained for the determination of selenium and glutathione peroxidase activities.

[2] = Plasma and tissue selenium concentrations in selenium-depleted lambs fed selenium sources; format: in vivo; settings: for Relative bioavailability based on tissue selenium concentration, Heart / Relative bioavailability based on tissue selenium concentration, Kidney / Relative bioavailability based on tissue selenium concentration, Liver / Relative bioavailability based on tissue selenium concentration, Muscle: sheep, po, 56 days
Excerpt: as §1

[3] = Performance of grow-finish pigs fed selenium sources; format: in vivo; settings: for Feed Intake / Feed/Gain / Gain: 0.3 ppm supplemental selenium
Excerpt: (§2) Sixteen pigs with an average weight of 22.9 kg were stratified by weight within sex and randomly assigned to treatments consisting of 0.3 ppm supplemental selenium from either sodium selenite or zinc L-selenomethionine hydrochloride. Pigs were housed in pens and each treatment consisted of four replicate pens each housed one gilt and one […]. Pigs were fed diets that were formulated to meet NRC requirements. Pigs were fed the growing diet for 56 days and then the finishing diet for 33 days. The average pig weight at the end of the growing and finishing phases was 69.6 and 101.2 kg, respectively. Body weights of each pig were determined initially and at the end of the growing and finishing phases. At the end of the study, pigs were slaughtered and samples of liver, muscle, heart and kidney were collected for selenium determination.

[4] = Tissue selenium concentrations in grow-finish pigs; format: in vivo
Excerpt: as §2

glutathione peroxidase [5] = assay: Plasma glutathione peroxidase activity in broilers; format: in vivo; settings: day 49
Description: (§3) One day old male and female birds were used in the study. Male and females were housed separately and randomly assigned to 6 blocks of 8 pens each (4 females and 4 males). The pens contained 50 females or 45 males. Two extra birds were added to each pen at the start of the experiment to allow for mortality and culls. On day 7 the number of birds in each per were adjusted to 50 females and 45 males. Three treatments were assigned to pens using a complete randomized block design. The treatments included: 1) negative control (no additional selenium), 2) sodium selenite, and 3) zinc L-selenomethionine. Birds were housed in concrete floor pens of an environmentally controlled facility. Environmental conditions were similar for all birds in all experimental groups. […] All feed added and removed from pens from day 0 to the end of the study was weighed and recorded. […] The feed intake for each pen was determined by subtracting the amount of feed remaining in the feeder at the end of the study period from the amount of feed weighed into the pen. Average bird weight was calculated on a pen basis. […] Blood was collected in heparinized tubes, plasma was separated and stored at −20° C. until analyzed for selenium and glutathione peroxidase. […] A 100 g sample of the right breast was collected from each bird and stored at −20° C. until analyzed for selenium.

[6] = Stability of a zinc L-selenomethionine solution on storage (HPLC); format: physicochemical
Description: FTIR Identification: A 100 μL of the extract was added to 100 mg of FTIR grade potassium bromide powder and mixed well. The mixer was dried in an oven at 75° C. A pellet was formed and the FTIR spectrum of the sample was recorded. […] (w, weak; m, medium; s, strong; vs, very strong). This spectrum is different than that of L-selenomethionine. Of interest is the absence of the weak to medium band at around 2118 cm^−1 characteristic of free amino acids. HPLC Determination: The concentration of zinc L-selenomethionine in the water extract was determined by HPLC. A Shimadzu instrument composed of SCL-10A-VP Controller, Dual LC-10AD-VP Pumps, SIL-10 Ai Auto sampler, and SCD-10AV-VP UV/Visible Detector set at 210 nm. A Discovery Cyano 5μ column (25 cm×4.6 mm) was used at 25° C. The mobile phase was a 0.1% Glacial acetic Acid at 1.00 mL/min. A 50 μL of the standard or sample solution was injected by the auto sampler. A set of 5 standards were prepared to contain 0.1567, 0.3134, 0.4701, 0.6268, and 0.7835 mg/ml of Zinc L-Selenomethionine. A 100 μL of the sample extract was diluted with 900 μL water and used as sample solution. Standards and sample solutions are filtered through a 2μ filter before injection. Standards and sample contained only a single component with a retention time of 3.975 min. Linear regression was used to construct a correlation graph of area under the peak vs. concentration. The concentration of zinc L-selenomethionine in the sample solution was calculated from the correlation graph and found to be 0.3898 mg/mL corresponding to 18.79% Zinc L-Selenomethionine or 5.67% Selenium in the original Premix.
About 2.0 g of a Zinc L-Selenomethionine Premix 5% Se was accurately weighed and transferred into a 100-ml volumetric flask. Water was added to volume. The flask was stoppered and its contents were mixed vigorously. The mixture was allowed to settle and a sample of the supernatant was removed carefully and filtered through a […]. The concentration of zinc L-selenomethionine in the filtrate was determined by HPLC as described in EXAMPLE 2. Analysis was conducted immediately after the solution was prepared and repeated at 30 days and 90 days after storing at an ambient temperature averaging 18° C. and 50% relative humidity.

[7] = Plasma selenium concentration in broilers; settings: both, chicken (broilers), in vivo, 49 days
Description: as §3

[8] = Rumen degradation after ingestion; settings: in vivo

Structure (SMILES) | Solubility in water (Solubility in water) | Whole blood glutathione peroxidase activity, difference between selenium sources (glutathione peroxidase [1]) | Plasma glutathione peroxidase activity compared with sodium selenite (glutathione peroxidase [1]) | Glutathione peroxidase activities in kidney, liver, and muscle compared to sodium selenite (glutathione peroxidase [1]) | Relative bioavailability based on glutathione peroxidase activity, Plasma, day 14 (glutathione peroxidase [1]; in vivo) | Relative bioavailability based on glutathione peroxidase activity, Plasma, day 28 (glutathione peroxidase [1]; in vivo) | Relative bioavailability based on glutathione peroxidase activity, Heart (glutathione peroxidase [1]; in vivo) | Relative bioavailability based on glutathione peroxidase activity, Kidney (glutathione peroxidase [1]; in vivo) | Relative bioavailability based on glutathione peroxidase activity, Liver (glutathione peroxidase [1]; in vivo) | Relative bioavailability based on glutathione peroxidase activity, Muscle (glutathione peroxidase [1]; in vivo) | Heart and liver selenium concentrations compared with sodium selenite ([2]; in vivo) | Relative bioavailability based on tissue selenium concentration, Heart ([2]; in vivo) | Relative bioavailability based on tissue selenium concentration, Kidney ([2]; in vivo) | Relative bioavailability based on tissue selenium concentration, Liver ([2]; in vivo) | Relative bioavailability based on tissue selenium concentration, Muscle ([2]; in vivo) | Feed Intake ([3]; Finishing Phase (33 days)) [kg] | Feed/Gain ([3]; Finishing Phase (33 days)) | Gain ([3]; Finishing Phase (33 days)) [kg/day] | Feed Intake ([3]; Growing Phase (56 days)) [kg] | Feed/Gain ([3]; Growing Phase (56 days)) | other results
C[Se]CC[C@H](N)C(=O)O [L-Selenomethionine, reference compound] | did not completely go into solution | no difference | higher | higher activities | 124 | 138 | 107 | 100 | 161 | 186 | higher heart and liver selenium concentrations | 139 | 59 | 206 | 133 | – | – | – | – | – | Plasma selenium compared with sodium selenite ([2]; in vivo): higher plasma selenium
O=[Se](O)O [Sodium Selenite, reference compound] | – | – | – | – | – | – | – | – | – | – | – | – | – | – | – | 2.57 | 2.71 | 0.95 | 1.74 | 2.15 | Plasma selenium concentration, difference between selenium sources ([2]; lambs, day 28): no difference; Gain ([3]; Growing Phase (56 days)): 0.81 kg/day; Feed Intake ([3]; Total): 2.05 kg; Feed/Gain ([3]; Total): 2.38; Gain ([3]; Total): 0.86 kg/day; Kidney selenium concentrations, sodium selenite versus zinc L-selenomethionine ([4]; pigs): similar; Glutathione Peroxidase Activity (glutathione peroxidase [5]): 14.0
C[Se]CC[C@@H]1[NH][Zn][O]C1=O [Zn L-Selenomethionine, Zinc L-Selenomethionine Hydrochloride] | – | no difference | higher | higher activities | 145 | 149 | 126 | 128 | 152 | 200 | higher heart and liver selenium concentrations | 158 | 74 | 160 | 85 | 2.22 | 2.31 | 0.96 | 1.86 | 2.16 | Stability of the water solution on storage [6]: stable on storage; Concentration of zinc L-selenomethionine in the solution ([6]; after 30 days at ambient temperature averaging 18° C. and 50% relative humidity): 18.89%; Concentration of zinc L-selenomethionine in the solution ([6]; after 90 days at ambient temperature averaging 18° C. and 50% relative humidity): 18.78%; Concentration of zinc L-selenomethionine in the solution ([6]; day of preparation, solution of Premix 5% Se in water): 18.95%; Change of concentration of zinc L-selenomethionine in the solution ([6]; thirty day storage at ambient temperature and humidity): less than 0.5%; Bioavailability compared with sodium selenite and L-selenomethionine (glutathione peroxidase [1]; in vivo): more bioavailabe; Plasma selenium compared with sodium selenite ([2]; lambs, day 56): higher plasma selenium; Gain/feed ratio compared with sodium selenite [3]: higher; Gain ([3]; Growing Phase (56 days)): 0.86 kg/day; Feed Intake ([3]; Total): 2.00 kg; Feed/Gain ([3]; Total): 2.22; Gain ([3]; Total): 0.90 kg/day; Feed consumed compared with sodium selenite ([3]; finishing phase): consumed less feed; Kidney selenium concentrations, sodium selenite versus zinc L-selenomethionine ([4]; pig, in vivo): similar; Selenium concentrations in liver, muscle and heart compared with sodium selenite ([4]; pig, in vivo): higher selenium concentrations; Glutathione Peroxidase Activity (glutathione peroxidase [5]): 14.9; Plasma Selenium Concentration [7]: 0.177 ppm; Rumen degradation after ingestion [8]: resistant to rumen degradation
C[Se]C[C@H](N)C(=O)O.Cl.[Zn] [zinc Se-methyl-L-selenocysteine complex, Zinc L-Se-Methylselenocysteine Hydrochloride] | readily soluble in water | – | – | – | – | – | – | – | – | – | – | – | – | – | – | – | – | – | – | – | Stability of the water solution on storage [6]: stable solution

From patent publication US6911550B2, “Derivatives of seleno-amino acids with improved bioavailability and method for their preparation” (priority 2003, dated 2005)
